This test deals with human DGKζ (Homo sapiens (Human), UniProt Q13574). The test is described as follows: Human DGKζ kinase activity inhibition assay (ADP-Glo). The class given is biochemical. The method in brief:
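Enzyme was C-terminally FLAG-tagged full-length recombinant human DGKζ from baculovirus-infected insect cells. Substrate preparation used octyl-β-D-glucopyranoside in 50 mM MOPS pH 7.4 with sonication; ADP generated was quantified by ADP-Glo luminescence as activity measure.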
(ADP-Glo first removes unused ATP, then detects ADP through luciferase.)

Setting [1] is: in vitro human DGKζ kinase activity inhibition assay, read-out: IC50.

Where two headings read alike, the source gives them in different places.

Sequence of human DGKζ (Q13574 other isoform, or with tags, fused parts or gaps): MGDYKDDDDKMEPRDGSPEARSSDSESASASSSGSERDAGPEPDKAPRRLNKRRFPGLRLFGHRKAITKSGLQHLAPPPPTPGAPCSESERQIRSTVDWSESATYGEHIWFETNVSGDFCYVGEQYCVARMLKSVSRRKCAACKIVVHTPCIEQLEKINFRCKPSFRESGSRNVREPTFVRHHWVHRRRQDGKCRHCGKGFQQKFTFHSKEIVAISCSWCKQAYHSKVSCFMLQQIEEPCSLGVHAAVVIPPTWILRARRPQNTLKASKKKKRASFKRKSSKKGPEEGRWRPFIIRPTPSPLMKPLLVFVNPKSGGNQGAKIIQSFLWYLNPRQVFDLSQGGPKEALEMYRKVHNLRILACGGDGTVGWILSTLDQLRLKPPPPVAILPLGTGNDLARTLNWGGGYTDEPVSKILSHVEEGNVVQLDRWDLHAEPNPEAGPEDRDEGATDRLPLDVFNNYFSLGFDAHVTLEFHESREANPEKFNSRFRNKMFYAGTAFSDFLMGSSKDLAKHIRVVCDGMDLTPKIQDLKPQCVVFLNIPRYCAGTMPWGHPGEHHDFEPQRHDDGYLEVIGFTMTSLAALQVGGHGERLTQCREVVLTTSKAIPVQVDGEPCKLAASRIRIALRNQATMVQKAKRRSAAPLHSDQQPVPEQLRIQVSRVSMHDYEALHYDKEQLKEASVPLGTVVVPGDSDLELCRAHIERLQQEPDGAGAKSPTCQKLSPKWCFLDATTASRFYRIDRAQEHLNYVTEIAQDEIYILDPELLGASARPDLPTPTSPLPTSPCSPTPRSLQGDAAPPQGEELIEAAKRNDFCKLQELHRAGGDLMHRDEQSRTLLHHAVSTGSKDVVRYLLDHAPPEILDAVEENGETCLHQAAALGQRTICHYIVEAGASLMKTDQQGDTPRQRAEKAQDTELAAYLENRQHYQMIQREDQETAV

The term IC50 denotes the concentration needed to halve the response being measured. Consider `CC(C(N)=O)N(c1ccc(F)cc1)c1nc(N)c(C(=O)c2ccc(OCC(=O)Nc3ncnc4[nH]ncc34)cc2)s1` (racemic) [Example 131, rac-2-(N-[4-amino-5-[4-[2-oxo-2-(1H-pyrazolo[3,4-d]pyrimidin-4-ylamino)ethoxy]benzoyl]thiazol-2-yl]-4-fluoro-anilino)propanamide], for which the concentration for half-maximal inhibition (IC50) under setting [1] turned out to be 180 nM.
Same read-out and setting: for `CC(C(N)=O)N(c1ccc(F)cc1)c1nc(N)c(C(=O)c2ccc(OCC(=O)NC3CCCC3)cc2)s1` (racemic) [Example 132, rac-2-(N-[4-amino-5-[4-[2-(cyclopentylamino)-2-oxo-ethoxy]benzoyl]thiazol-2-yl]-4-fluoro-anilino)propanamide] the value was 93.3 nM.
Take `CC(C(N)=O)N(c1ccc(F)cc1)c1nc(N)c(C(=O)c2ccc(OCC(=O)N3CCc4ccccc4C3)cc2)s1` (racemic) [Example 133, rac-2-(N-[4-amino-5-[4-[2-(3,4-dihydro-1H-isoquinolin-2-yl)-2-oxo-ethoxy]benzoyl]thiazol-2-yl]-4-fluoro-anilino)propanamide]: the IC50 under setting [1] worked out at 42.5 nM.
As to `CC(C(N)=O)N(c1ccc(F)cc1)c1nc(N)c(C(=O)c2ccc(OCC(=O)N3Cc4ccccc4C3)cc2)s1` (racemic) [Example 134, rac-2-(N-[4-amino-5-[4-(2-isoindolin-2-yl-2-oxo-ethoxy)benzoyl]thiazol-2-yl]-4-fluoro-anilino)propanamide], the IC50 under setting [1] stood at 76.8 nM.
Same read-out and setting: for `CC(C(N)=O)N(c1ccc(F)cc1)c1nc(N)c(C(=O)c2ccc(OCC(=O)N(C)Cc3ccco3)cc2)s1` (racemic) [Example 135, rac-2-(N-[4-amino-5-[4-[2-[2-furylmethyl(methyl)amino]-2-oxo-ethoxy]benzoyl]thiazol-2-yl]-4-fluoro-anilino)propanamide] the value was 49.5 nM; for `CC(C(N)=O)N(c1ccc(F)cc1)c1nc(N)c(C(=O)c2ccc(OCC(=O)N3CCC(N(C)C)CC3)cc2)s1` (racemic) [Example 136, rac-2-(N-[4-amino-5-[4-[2-[4-(dimethylamino)-1-piperidyl]-2-oxo-ethoxy]benzoyl]thiazol-2-yl]-4-fluoro-anilino)propanamide], 740 nM.
Still for that read-out and setting: for `CC(C(N)=O)N(c1ccc(F)cc1)c1nc(N)c(C(=O)c2ccc(OCC(=O)N(C)Cc3cccnc3)cc2)s1` (racemic) [Example 137, rac-2-(N-[4-amino-5-[4-[2-[methyl(3-pyridylmethyl)amino]-2-oxo-ethoxy]benzoyl]thiazol-2-yl]-4-fluoro-anilino)propanamide] the value was 238 nM; for `Cc1ccccc1N(C)C(=O)COc1ccc(C(=O)c2sc(N(c3ccc(F)cc3)C(C)C(N)=O)nc2N)cc1` (racemic) [Example 138, rac-2-(N-[4-amino-5-[4-[2-(N,2-dimethylanilino)-2-oxo-ethoxy]benzoyl]thiazol-2-yl]-4-fluoro-anilino)propanamide], 61.6 nM; for `Cc1ccc(N(C)C(=O)COc2ccc(C(=O)c3sc(N(c4ccc(F)cc4)C(C)C(N)=O)nc3N)cc2)cc1` (racemic) [Example 139, rac-2-(N-[4-amino-5-[4-[2-(N,4-dimethylanilino)-2-oxo-ethoxy]benzoyl]thiazol-2-yl]-4-fluoro-anilino)propanamide], 56.9 nM.
As for `Cc1cccc(N(C)C(=O)COc2ccc(C(=O)c3sc(N(c4ccc(F)cc4)C(C)C(N)=O)nc3N)cc2)c1` (racemic) [Example 140, rac-2-(N-[4-amino-5-[4-[2-(N,3-dimethylanilino)-2-oxo-ethoxy]benzoyl]thiazol-2-yl]-4-fluoro-anilino)propanamide], the IC50 (IC50, in vitro human DGKζ kinase activity inhibition assay) stood at 37.5 nM.
Regarding `CC(C(N)=O)N(c1ccc(F)cc1)c1nc(N)c(C(=O)c2ccc(OCC(=O)NCC(C)(C)C)cc2)s1` (racemic) [Example 141, rac-2-(N-[4-amino-5-[4-[2-(2,2-dimethylpropylamino)-2-oxo-ethoxy]benzoyl]thiazol-2-yl]-4-fluoro-anilino)propanamide], the IC50 under setting [1] is 389 nM.
For `CC(C(N)=O)N(c1ccc(F)cc1)c1nc(N)c(C(=O)c2ccc(OCC(=O)NCC(O)CO)cc2)s1` (racemic) [Example 147, 2-(N-[4-amino-5-[4-[2-((2RS),3-dihydroxypropylamino)-2-oxo-ethoxy]benzoyl]thiazol-2-yl]-4-fluoro-anilino)propanamide], the IC50 under setting [1] was 291 nM.
Still for that read-out and setting: for `CC(C)NC(=O)C(C)(C)Oc1ccc(C(=O)c2sc(N(c3ccc(F)cc3)C(C)C(N)=O)nc2N)cc1` (racemic) [Example 154, rac-2-[4-[4-amino-2-(N-(2-amino-1-methyl-2-oxo-ethyl)-4-fluoro-anilino)thiazole-5-carbonyl]phenoxy]-N-isopropyl-2-methyl-propanamide] the value was 55.6 nM.
On to `CC(C(N)=O)N(c1ccc(F)cc1)c1nc(N)c(C(=O)c2ccc(OC(C)(C)C(N)=O)cc2)s1` (racemic) [Example 155, rac-2-[4-[4-amino-2-(N-(2-amino-1-methyl-2-oxo-ethyl)-4-fluoro-anilino)thiazole-5-carbonyl]phenoxy]-2-methyl-propanamide], for which the IC50 under setting [1] amounted to 200 nM.
On the same count and under the same terms, for `Cc1nc(N(c2ccc(F)cc2)C(C)C(N)=O)sc1C(=O)c1ccccc1` (racemic) [Example 156, rac-2-(N-(5-benzoyl-4-methyl-thiazol-2-yl)-4-fluoro-anilino)propanamide] the value was 231 nM; for `CC(C(N)=O)N(c1ccc(F)cc1)c1nc(N)c(C(=O)c2ccc(O)cc2)s1` (racemic) [Example 157, rac-2-(N-[4-amino-5-(4-hydroxybenzoyl)thiazol-2-yl]-4-fluoro-anilino)propanamide], 190 nM; for `CC(C(N)=O)N(c1ccc(F)cc1)c1nc(N)c(C(=O)c2ccc(OCc3ccccc3)cc2)s1` (racemic) [Example 158, rac-2-(N-[4-amino-5-(4-benzyloxybenzoyl)thiazol-2-yl]-4-fluoro-anilino)propanamide], 6.71 nM.
For `CC(C(N)=O)N(c1ccc(F)cc1)c1nc(N)c(C(=O)c2ccc(C(F)F)nc2)s1` (racemic) [Example 159, rac-2-(N-[4-amino-5-[6-(difluoromethyl)pyridine-3-carbonyl]thiazol-2-yl]-4-fluoro-anilino)propanamide], under setting [1], the IC50 came out at 214 nM.
Take `CC(C(N)=O)N(c1ccc(F)c(Cl)c1)c1nc(N)c(C(=O)c2ccncc2)s1` (racemic) [Example 160, rac-2-(N-[4-amino-5-(pyridine-4-carbonyl)thiazol-2-yl]-3-chloro-4-fluoro-anilino)propanamide]: the 50% inhibitory concentration (IC50) under setting [1] was 187 nM.
The same measure, in the same setting: for `COc1ccc(C(=O)c2sc(N(c3ccc(F)c(Cl)c3)C(C)C(N)=O)nc2N)cc1` (racemic) [Example 161, rac-2-(N-[4-amino-5-(4-methoxybenzoyl)thiazol-2-yl]-3-chloro-4-fluoro-anilino)propanamide] the value was 15 nM; for `CC(C(N)=O)N(c1ccc(F)cc1)c1nc(N)c(C(=O)c2ccc(OC(F)F)nc2)s1` (racemic) [Example 162, rac-2-(N-[4-amino-5-[6-(difluoromethoxy)pyridine-3-carbonyl]thiazol-2-yl]-4-fluoro-anilino)propanamide], 22 nM; for `CC(C(N)=O)N(c1ccc(F)c(F)c1)c1nc(N)c(C(=O)c2ccc(OC(F)F)nc2)s1` (racemic) [Example 163, rac-2-(N-[4-amino-5-[6-(difluoromethoxy)pyridine-3-carbonyl]thiazol-2-yl]-3,4-difluoro-anilino)propanamide], 9 nM.
Still for that read-out and setting: for `CC(C(N)=O)N(c1ccc(Cl)c(F)c1)c1nc(N)c(C(=O)c2ccc(OC(F)F)nc2)s1` (racemic) [Example 164, rac-2-(N-[4-amino-5-[6-(difluoromethoxy)pyridine-3-carbonyl]thiazol-2-yl]-4-chloro-3-fluoro-anilino)propanamide] the value was 7 nM; for `CC(C(N)=O)N(c1ccc(F)c(F)c1)c1nc(N)c(C(=O)c2ccc(OCc3ccccc3)cc2)s1` (racemic) [Example 165, rac-2-(N-[4-amino-5-(4-benzyloxybenzoyl)thiazol-2-yl]-3,4-difluoro-anilino)propanamide], 3 nM; for `CC(C(N)=O)N(c1ccc(Cl)c(F)c1)c1nc(N)c(C(=O)c2ccc(OCc3ccccc3)cc2)s1` (racemic) [Example 166, rac-2-(N-[4-amino-5-(4-benzyloxybenzoyl)thiazol-2-yl]-4-chloro-3-fluoro-anilino)propanamide], 3 nM.
Regarding `CC(C(N)=O)N(c1ccc(F)c(F)c1)c1nc(N)c(C(=O)c2ccc(NC(=O)OCc3ccccc3)cc2)s1` (racemic) [Example 167, rac-benzyl N-[4-[4-amino-2-(N-(2-amino-1-methyl-2-oxo-ethyl)-3,4-difluoro-anilino)thiazole-5-carbonyl]phenyl]carbamate], the IC50 under setting [1] is 2 nM.
In the case of `CC(=O)OCCOc1ccc(C(=O)c2sc(N(c3ccc(F)cc3)C(C)C(N)=O)nc2N)cc1` (racemic) [Example 168, rac-2-[4-[4-amino-2-(N-(2-amino-1-methyl-2-oxo-ethyl)-4-fluoro-anilino)thiazole-5-carbonyl]phenoxy]ethyl acetate], the IC50 under setting [1] was 19 nM.
Turning to `CC(C(N)=O)N(c1ccc(F)cc1)c1nc(N)c(C(=O)c2ccc(NC(=O)OCc3ccccc3)cc2)s1` (racemic) [Example 169, rac-benzyl N-[4-[4-amino-2-(N-(2-amino-1-methyl-2-oxo-ethyl)-4-fluoro-anilino)thiazole-5-carbonyl]phenyl]carbamate], the 50% inhibitory concentration (IC50) under setting [1] came out at 3 nM.
On the same count and under the same terms, for `CC(C(N)=O)N(c1ccc(F)cc1)c1nc(N)c(C(=O)c2ccc(OCc3ccccc3)cc2)s1` (racemic) [Example 170, rac-2-(N-[4-amino-5-(4-benzyloxybenzoyl)thiazol-2-yl]-4-fluoro-anilino)propanamide] the value was 7 nM.
The same measure, in the same setting: for `CC(C(N)=O)N(c1ccc(F)cc1)c1nc(N)c(C(=O)c2ccc(I)cc2)s1` (racemic) [Example 171, rac-2-(N-[4-amino-5-(4-iodobenzoyl)thiazol-2-yl]4-fluoro-anilino)propanamide] the value was 11 nM.

The values are drawn from patent publication US11964953B2, “Substituted aminothiazoles as DGKzeta inhibitors for immune activation” (Bayer Aktiengesellschaft, priority 2020, dated 2024).
